Data published in patent publication US11253501B2, “Secnidazole formulations and use in treating bacterial vaginosis” (LUPIN INC., priority 2015, dated 2022).

Tests used:
[1] = Plasma pharmacokinetics after a single oral dose in fasted healthy female subjects; assay type: in vivo, human; settings: 2 gram secnidazole microgranule formulation (70% drug in core)
[2] = Urine pharmacokinetics after a single oral dose in fasted healthy female subjects; assay type: in vivo, human; settings: 2 gram secnidazole microgranule formulation (70% drug in core)

Compound: Cc1ncc([N+](=O)[O-])n1CC(C)O (centres unmarked) [Secnidazole, 1-(2-hydroxypropyl)-2-methyl-5-nitromidazole]
- λz, Mean (SD) [1]: 0.0422 (0.007544) 1/h
- λz, Median [1]: 0.04047 h⁻¹
- % FE, Geometric Mean (SD) [2]: 14.991 (3.0081) %
- % FE, Mean (SD) [2]: 15.300 (3.5549) %
- % FE, Median [2]: 14.943%
- Ae0-168, Geometric Mean (SD) [2]: 0.300 (0.0602) g
- Ae0-168, Mean (SD) [2]: 0.306 (0.0711) g
- Ae0-168, Median [2]: 0.299 g
